In patent US11160871B2, “SSTR-targeted conjugates and particles and formulations thereof” (TARVEDA THERAPEUTICS, INC., priority 2015, dated 2021):

Experiments:
[1] = test system: NCI-H69 SCLC tumors; assay: H69 tumor DM-1 levels by LC/MS-MS; type: in vivo, mice; conditions: 1 mg/kg; 24 hour time point
Protocol: To examine the ability of conjugates of the present invention to accumulate in tumors, a murine cancer model was used. All mice were treated in accordance with the OLAW Public Health Service Policy on Human Care and Use of Laboratory Animals and the ILAR Guide for the Care and Use of Laboratory Animals. All in vivo studies were conducted following the protocols approved by the Blend Therapeutics Institutional Animal Care and Use Committee. Animals were inoculated with 2.5×10^6 NCI-H69 SCLC (small cell lung cancer) cells in 1:1 RPMI 1640 (Invitrogen, Carlsbad, Calif.)/Matrigel® (BD Biosciences, San Jose, Calif.) via subcutaneous injection to the right flank. Tumors were allowed to reach an approximate volume of ˜500 mm3. Animals were then randomized into treatment groups of 3 animals per time point and were dosed at 1 mg/kg (10% propylene glycol in water for injection for free conjugates, or 10% sucrose for nanoparticles), or 0.4 mg/kg for DM-1 (10% propylene glycol in water for injection). The 24 hour time point was used as a benchmark across conjugates.
Tumor DM-1 levels were determined by liquid chromatography mass spectrometry (LC/MS-MS). Four volumes of 5 mM 6-maleimidohexanoic acid to 1 part tumor v/w was added and homogenized for about 10-15 seconds with a handheld homogenizer. 10 μL of 500 mM Tris(2-carboxyethyl)phosphine was added to 100 uL of tumor homogenate, mixed well and incubated at room temperature for about 5-15 min. 200-300 uL of acetonitrile was used to precipitate proteins in tumor homogenate, samples were centrifuged for 5 min, and supernatant was injected onto LC/MS-MS system for DM-1 analysis.

[2] = test system: NCI-H69 tumors; assay: NCI-H69 tumor volume study, 2 doses; type: in vivo, mice
Protocol: In another study, 10 mice bearing NCI-H69 tumors were given 2 doses of Conjugate 57 at 2 mg/kg each. 9 mice bearing NCI-H69 tumors were given 2 doses of Conjugate 57 at 1.3 mg/kg each. All 10 animals dosed at 2 mg/kg had no detectable tumors at study end. Conjugate 57 More than half (5 out of 9) animals dosed at 1.3 mg/kg had no detectable tumors at study end.

[3] = test system: H69 tumors; assay: PD studies with H69 model, PH3 and CC3 by Western blot and IHC; type: in vivo
Protocol: PD studies were carried out with H69 model to determine the in vivo response of conjugate effects on tumor cells and timing/peak response. Conjugate 57 and Conjugate 57 in nanoparticles (Conjugate 57/NP20) were tested at 2 mg/kg. NP20 formulation has been described in EXAMPLE 2. Western blot and IHC staining were carried out to measure PH3 and CC3 levels.
PH3 is correlated chromosome condensation during both mitosis and meiosis. […] As shown in Western Blot results in FIG. 18A, the peak response for PH3 occurs at 48 hours for both the conjugate and the conjugate in the nanoparticle. […] PH3 level was steady for Conjugate 57/NP20 samples.
CC3 is a marker of apoptosis. It is the executioner of apoptosis and tightly regulated. A peak in activity is seen for both Conjugate 57 and Conjugate 57/NP20 at 72 hours (FIG. 19). The activity of Conjugate 57 is stronger as compared to Conjugate 57/NP20, consistent with the PH3 results.
Cell arrest as indicated by PH3 levels peaked at 48 hr and apoptosis as indicated by CC3 levels peaked at 72 hr.

[4] = test system: HCC-33 (small cell lung cancer) xenograft; assay: HCC-33 xenograft, multiple dose regimens (Example 17); type: in vivo
Protocol: HCC-33 (small cell lung cancer) xenograft was chosen to study efficacy of Conjugate 57. In some groups, Conjugate 57 was given at 1.0 mg/kg, 0.5 mg/kg or 0.33 mg/kg every week for 30 days, a total of four doses for each animal. In some other groups, Conjugate 57 was also given at 0.5 mg/kg or 0.25 mg/kg twice a week for 30 days, a total of 8 total doses for each animal.

[5] = test system: IMR-32 cells; assay: In vitro competitive assay in IMR-32 cells; type: cell-based; conditions: absence of octreotide
Protocol: First, an in vitro competitive assay was conducted where IMR-32 cells were treated with Conjugate 57 in the absence or presence of an excess of octreotide. […] Pre-incubation with octreotide affected the inhibition.

[6] = target: SSTR2 (Homo sapiens, UniProt P30874); assay: SSTR2 receptor internalization in H524-MD tumor xenograft (IHC); type: in vivo; set-up: expressed in transfected cells
Protocol: SSTR2 receptor internalization was studied using Conjugate 57 in a highly expressing SSTR2 positive (SSTR2+) tumor xenograft: H524_MD tumor xenograft. Vehicle (0.1% Solutol/5% Mannitol), Conjugate 57 at 2 mg/kg, scrambled control (BT-984) at 2 mg/kg, and Octreotide at 1.4 mg/kg (ligand alone) were given to SSTR2+H524-MD tumor xenografts (n=3/group). Timepoints—0 hr (Vehicle), 15 mins, 1 hr, 4 hr, 24 hr and 72 hrs. SSTR2 scoring was done by immunohistochemistry (IHC) staining.

[7] = 0.25 mg/kg 2x/wk, 8 total doses
[8] = 0.33 mg/kg every week, four doses
[9] = 0.5 mg/kg every week, four doses
[10] = 1.0 mg/kg every week, four doses
[11] = 2 mg/kg, H524-MD tumor xenografts

Sequence of SSTR2 (P30874 whole entry): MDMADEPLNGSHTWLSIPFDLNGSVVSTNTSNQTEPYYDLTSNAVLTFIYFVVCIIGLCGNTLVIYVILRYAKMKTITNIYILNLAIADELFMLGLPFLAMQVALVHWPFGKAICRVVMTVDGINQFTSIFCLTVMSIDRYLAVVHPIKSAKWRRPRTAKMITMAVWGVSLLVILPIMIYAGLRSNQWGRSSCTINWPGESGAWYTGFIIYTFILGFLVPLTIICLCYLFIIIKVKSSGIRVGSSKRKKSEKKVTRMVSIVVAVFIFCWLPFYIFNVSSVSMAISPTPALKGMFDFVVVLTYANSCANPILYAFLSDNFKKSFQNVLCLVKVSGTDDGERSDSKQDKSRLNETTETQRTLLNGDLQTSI

SMILES: COc1cc2cc(c1Cl)N(C)C(=O)C[C@H](OC(=O)[C@H](C)N(C)C(=O)CCSSC[C@H](NC(=O)[C@@H]1CSSC[C@H](NC(=O)[C@H](N)Cc3ccccc3)C(=O)N[C@@H](Cc3ccc(O)cc3)C(=O)N[C@H](Cc3c[nH]c4ccccc34)C(=O)N[C@@H](CCCCN)C(=O)N[C@@H]([C@@H](C)O)C(=O)N1)C(N)=O)[C@]1(C)O[C@H]1[C@H](C)[C@@H]1C[C@@](O)(NC(=O)O1)[C@H](OC)/C=C/C=C(\C)C2 [Conjugate 57]
- H69 tumor DM-1 levels [1]: 243 nM
- animals with no detectable tumors at study end ([2]; 2 doses at 1.3 mg/kg each, 9 mice): 5 out of 9
- animals with no detectable tumors at study end ([2]; 2 doses at 2 mg/kg each, 10 mice): 10
- time of PH3 signal peak, IHC ([3]; 2 mg/kg): 48 h
- time of peak in CC3 activity ([3]; 2 mg/kg): 72 h
- time of peak response for PH3, Western Blot ([3]; 2 mg/kg): 48 h
- time of peak of apoptosis as indicated by CC3 levels (fold change, FIG. 21) ([3]; H69): 72 h
- time of peak of cell arrest as indicated by PH3 levels (fold change, FIG. 21) ([3]; H69): 48 h
- TGI % Day 4 [4, 7]: −12.5%
- TGI % Day 8 [4, 7]: 50.4%
- TGI % Day 11 [4, 7]: 67.3%
- TGI % Day 15 [4, 7]: 85.8%
- TGI % Day 18 [4, 7]: 92.3%
- TGI % Day 22 [4, 7]: 95.8%
- TGI % Day 25 [4, 7]: 97.2%
- TGI % Day 29 [4, 7]: 97.8%
- TGI % Day 4 [4, 8]: 2.1%
- TGI % Day 8 [4, 8]: 34.2%
- TGI % Day 11 [4, 8]: 48%
- TGI % Day 15 [4, 8]: 62.4%
- TGI % Day 18 [4, 8]: 73.8%
- TGI % Day 22 [4, 8]: 79%
- TGI % Day 25 [4, 8]: 83.4%
- TGI % Day 29 [4, 8]: 78.5%
- TGI % Day 4 ([4]; 0.5 mg/kg 2x/wk, 8 total doses): 0.5%
- TGI % Day 8 ([4]; 0.5 mg/kg 2x/wk, 8 total doses): 61.6%
- TGI % Day 11 ([4]; 0.5 mg/kg 2x/wk, 8 total doses): 78.3%
- TGI % Day 15 ([4]; 0.5 mg/kg 2x/wk, 8 total doses): 91.8%
- TGI % Day 18 ([4]; 0.5 mg/kg 2x/wk, 8 total doses): 96.2%
- TGI % Day 22 ([4]; 0.5 mg/kg 2x/wk, 8 total doses): 97.6%
- TGI % Day 25 ([4]; 0.5 mg/kg 2x/wk, 8 total doses): 99.1%
- TGI % Day 29 ([4]; 0.5 mg/kg 2x/wk, 8 total doses): 99.2%
- TGI % Day 4 [4, 9]: 1.6%
- TGI % Day 8 [4, 9]: 60.3%
- TGI % Day 11 [4, 9]: 68.8%
- TGI % Day 15 [4, 9]: 82.7%
- TGI % Day 18 [4, 9]: 87.1%
- TGI % Day 22 [4, 9]: 91.1%
- TGI % Day 25 [4, 9]: 93.6%
- TGI % Day 29 [4, 9]: 89.5%
- TGI % Day 4 [4, 10]: 25.8%
- TGI % Day 8 [4, 10]: 69.9%
- TGI % Day 11 [4, 10]: 84.4%
- TGI % Day 15 [4, 10]: 93.6%
- TGI % Day 18 [4, 10]: 97.4%
- TGI % Day 22 [4, 10]: 99.2%
- TGI % Day 25 [4, 10]: 99.8%
- TGI % Day 29 [4, 10]: 99.7%
- tolerability of multiple doses ([4]; all regimens): well tolerated
- growth of IMR-32 cells [5]: inhibited the growth of IMR-32 cells
- SSTR2 internalization distribution of staining [6, 11]: significantly different results from BT-984 and naïve at 4 hr, 24 hr, and 72 hours
- SSTR2 receptor internalization intensity of staining [6, 11]: significantly different results from scrambled peptide version of compound 57 (BT-984) and naïve at 1 hr, 4 hr, and 72 hours
- SSTR2 internalization compared with octreotide ([6]; Conjugate 57 2 mg/kg, Octreotide 1.4 mg/kg): caused more SSTR2 internalization than octreotide alone
